According to patent US20250049741A1, “COMPOSITION FOR PREVENTING OR TREATING ALZHEIMER'S DISEASE COMPRISING PHOSPHOLIPASE C ACTIVATOR AS AN ACTIVE INGREDIENT” (Korea University Research and Business Foundation, priority 2021, published 2025):

Tests used:
[1] = test system: hippocampal CA3-CA1 excitatory synapses; experiment: S-eCB mobilization induced spike timing-dependent potentiation (tLTP) protocol, EPSP slope; format: cell-based, Sprague-Dawley rats; conditions: m-3M3FBS 30 μM; AβO-treated rat hippocampal slices; similar to level in DMSO-treated slices
Protocol: (§1) Soluble AβO was prepared according to a previous study (BMC Biol. 2020; 18(1):7). Specifically, Aβ1-42 (Aβ) and a scrambled form of Aβ as a control peptide were purchased in powder form. Aβ and scrambled Aβ were dissolved for monomerization in 1,1,1,3,3,3-hexafluoro-2-propanol (HFIP, Sigma Aldrich, USA) at a final concentration of 1 mM, and the solution was incubated for 90 minutes. After the HFIP was evaporated, the remaining thin and clear film of Aβ or scrambled Aβ was dissolved in dimethyl sulfoxide (DMSO, Sigma Aldrich, USA) to prepare 5 mM Aβ or scrambled Aβ stocks, which were aliquoted and frozen at −20° C. Aβ or scrambled Aβ stocks were thawed and diluted to 100 μM in artificial cerebrospinal fluid (ACSF). Thereafter, Aβ or scrambled Aβ stocks were incubated for oligomerization for 18 hours. The final AβO or scrambled AβO stock solution was diluted to a final concentration of 200 nM in 31.2 ml of ACSF, and rat hippocampal slices were treated with the stock solution for 20 minutes in a recovery chamber before measurement of brain signals. In control experiments for normal brain conditions using a vehicle, rat hippocampal slices were treated with 0.004% DMSO in ACSF.
(§2) The brains of SD rats were isolated following decapitation under isoflurane-induced anesthesia and transferred into ice-cold ACSF containing 126 mM NaCl, […], 1.25 mM NaH2PO4, 2 mM MgSO4, 2 mM CaCl2), 25 mM NaHCO3, and 10 mM glucose (pH 7.2 to 7.4). The ACSF was continuously oxygenated with 95% O2/5% CO2. Horizontal hippocampal slices (350 μm thickness) were obtained using a vibratome (VT1000S, Leica Biosystems, Germany) and immediately incubated at room temperature in a submerged chamber perfused with oxygenated ACSF for at least 1 hour.

[2] = test system: CA1 PCs in rat hippocampal slices; experiment: Ex vivo eCB / S-eCB mobilization protocol: eIPSC amplitudes by whole-cell voltage-clamp; format: cell-based, Sprague-Dawley rats; conditions: m-3M3FBS 30 μM
Source text: To test the acute effect of AβO on hippocampal S-eCB mobilization, hippocampal slices from Sprague-Dawley rats (SD, 2 to 3 weeks old, DaeHan Biolink, Co., Ltd., Korea) were used. Male and female rats were used in all in vitro experiments. To test the chronic effect of AβO on hippocampus-dependent memory impairments caused by amyloidosis, the 5XFAD mouse model (6 to 7 months old, #34840-JAX, Jackson Laboratory, USA), which is a mouse model of Alzheimer's disease that mimics AβO depositions, was used. C57BL/6 mice (6 to 7 months old, KOATECH, Korea) were used as wild type (WT) control mice for 5XFAD mice. Male 5XFAD and C57BL/6 mice were used for all in vivo behavioral experiments. The 5XFAD mouse genotypes were identified by polymerase chain reaction (PCR) using DNA extracted from the tails of the mice. All animal-related procedures followed the guidelines of the Institutional Animal Care and Use Committee of Korea University (guidelines for SD rats: KUIACUC-2017-103, guidelines for C57BL/6 and 5XFAD mice: KUIACUC-2019-0068).
as §1, §2
To quantify eCB mobilization, the changes in eCB mobilization-induced Schaffer collateral (SC) nerve bundle stimulation-evoked inhibitory postsynaptic current (eIPSC) amplitudes were measured in CA1 PCs through the whole-cell voltage-clamp technique. The whole-cell voltage-clamp technique in CA1 PCs was performed using a MultiClamp 700B amplifier (Molecular Devices, USA) under an infrared differential interference contrast video microscope (BW51W, Olympus, Japan), using a borosilicate electrode (tip resistance: 4 to 8 MΩ) that was filled with an intracellular solution containing 145 mM CsCl, 10 mM HEPES, 2 mM EGTA, 4 mM QX-314, 4 mM Mg-ATP, 0.4 mM […], pH 7.2 to 7.3, and 270 to 280 mOsm/L. To record eIPSCs in the CA1 PCs, a stimulating electrode (A-M Systems, USA) was placed in a stratum radiatum to stimulate the SC pathway that carries CA3 PC axons. Electrical stimulation pulses of 200 to 400 μA amplitudes (20 to 40 μs) were generated using a constant current stimulator (model DS3, Digitimer Ltd., UK). eIPSCs were recorded in CA PCs every 1 second while maintaining the membrane potential at −70 mV.

For `Cc1cc(C)c(S(=O)(=O)Nc2cccc(C(F)(F)F)c2)c(C)c1` [m-3M3FBS], the “tLTP in AβO-treated slices” value [1] was “completely recovered”, the “synergistic enhancement of the suppression of eIPSC amplitudes (S-eCB mobilization) in AβO-treated slices” value ([2]; AβO-treated rat hippocampal slices) was “completely recovered” and the “suppression of eIPSC amplitudes, recordings in DMSO-treated and scrambled AβO-treated slices” value ([2]; DMSO-treated and scrambled AβO-treated rat hippocampal slices) was “not significantly different”.
